Laboratory results as given in article PMC4335062, “Data-Driven Prediction and Design of bZIP Coiled-Coil Interactions” (PLoS Computational Biology, 2015).
Where two headings read alike, the source gives them in different places. Where no end group is shown, it is not given here.

Experiments:
Test in all cases: Direct-binding FRET assay
NFIL3 = target: T1, NFIL3 (Homo sapiens, UniProt Q16649)
T1 construct: made in house
T1 sequence (Q16649 73-136 limits assumed): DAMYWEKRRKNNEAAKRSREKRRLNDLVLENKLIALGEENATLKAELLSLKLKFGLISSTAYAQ
In short: (§1)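 2-fold acceptor titration in 1 mM TCEP-HCl (4 μM stock); donor fluorescence read. Kd fitted by simulating homo/heterodimer equilibria; fits required ≥15% donor signal change over 0–1000 nM acceptor, else "NS".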

DBP = target: T2, DBP (Homo sapiens, UniProt Q10586); conditions: Kd
T2 construct: made in house
T2 sequence (Q10586 255-318 limits assumed): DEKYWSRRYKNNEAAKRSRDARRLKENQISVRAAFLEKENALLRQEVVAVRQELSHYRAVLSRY
In short: as §1

CREB3 = target: T3, CREB3 (Homo sapiens, UniProt O43889)
T3 construct: made in house
T3 sequence (O43889 150-213 limits assumed): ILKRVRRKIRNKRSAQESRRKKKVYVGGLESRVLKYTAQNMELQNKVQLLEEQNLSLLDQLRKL
In short: as §1

ATF2 = target: T4, ATF2 (Homo sapiens, UniProt P15336); conditions: Kd, N-terminal rhodamine design, mean or single
T4 construct: made in house
T4 sequence (P15336 352-415 limits assumed): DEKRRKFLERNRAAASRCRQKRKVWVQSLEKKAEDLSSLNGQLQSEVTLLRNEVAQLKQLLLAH
In short: as §1

BATF3 = target: T5, BATF3 (Homo sapiens, UniProt Q9NR55); conditions: Kd, mean or single
T5 construct: made in house
T5 sequence (Q9NR55 35-98 limits assumed): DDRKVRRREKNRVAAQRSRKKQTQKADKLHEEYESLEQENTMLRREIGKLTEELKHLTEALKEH
In short: as §1

ATF5 = target: T6, ATF5 (Homo sapiens, UniProt Q9Y2D1); conditions: Kd
T6 construct: made in house
T6 sequence (Q9Y2D1 208-271 limits assumed): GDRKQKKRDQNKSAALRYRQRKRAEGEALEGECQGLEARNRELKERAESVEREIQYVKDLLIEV
In short: as §1

FOSL1 = target: T7, FOSL1 (Homo sapiens, UniProt P15407)
T7 construct: made in house
T7 sequence (P15407 105-168 limits assumed): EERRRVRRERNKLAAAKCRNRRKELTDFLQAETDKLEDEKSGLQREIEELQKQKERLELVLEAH
In short: as §1

HLF = target: T8, HLF (Homo sapiens, UniProt Q16534)
T8 construct: made in house
T8 sequence (Q16534 225-288 limits assumed): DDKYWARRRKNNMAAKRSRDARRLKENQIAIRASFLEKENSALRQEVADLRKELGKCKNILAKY
In short: as §1

CREBZF = target: T9, CREBZF (Homo sapiens, UniProt Q9NS37)
T9 construct: made in house
T9 sequence (Q9NS37 204-267 limits assumed): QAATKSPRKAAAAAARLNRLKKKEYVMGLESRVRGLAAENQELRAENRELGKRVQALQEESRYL
In short: as §1

BATF2 = target: T10, BATF2 (Homo sapiens, UniProt Q8N1L9); conditions: Kd
T10 construct: made in house
T10 sequence (Q8N1L9 17-80 limits assumed): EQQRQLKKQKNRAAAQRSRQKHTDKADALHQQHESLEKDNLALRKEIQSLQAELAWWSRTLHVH
In short: as §1

[1] = 4°C, C-terminal fluorescein design as donor, TAMRA target titrated
[2] = 4°C, C-terminal rhodamine design, mean or single
[3] = 4°C, N-terminal rhodamine design, mean or single
[4] = 23°C, C-terminal fluorescein design as donor, TAMRA target titrated
[5] = 23°C, C-terminal rhodamine design, mean or single
[6] = 23°C, N-terminal rhodamine design, mean or single
[7] = 37°C, C-terminal fluorescein design as donor, TAMRA target titrated
[8] = 37°C, N-terminal rhodamine design, mean or single
[9] = 37°C, C-terminal rhodamine design, mean or single

“SIAATLEKEEANLEKMNKKLAAEIESLLKEKDKLESVLNYHE [JUN-d1]” gave a Kd (NFIL3) greater than 1000 nM, a Kd (NFIL3; [1]) greater than 1000 nM and a Kd (NFIL3; [2]) greater than 1000 nM. The Kd (NFIL3; [3]) was greater than 1000 nM, the Kd (NFIL3; [4]) was greater than 1000 nM and the Kd (NFIL3; [5]) was greater than 1000 nM. For the same sequence, the Kd (NFIL3; [6]) was greater than 1000 nM, the Kd (NFIL3; [7]) was greater than 1000 nM and the Kd (NFIL3; [8]) was greater than 1000 nM. For the same sequence, the Kd (DBP; [1]) was greater than 1000 nM, the Kd (DBP; [2]) was greater than 5000 nM and the Kd (DBP; [3]) was greater than 1000 nM. It also gave a Kd (DBP; [4]) greater than 1000 nM, a Kd (DBP; [5]) greater than 5000 nM and a Kd (DBP; [6]) greater than 1000 nM. It also gave a Kd (DBP; [7]) greater than 1000 nM, a Kd (DBP; [9]) greater than 1000 nM and a Kd (DBP; [8]) greater than 1000 nM. For the same sequence, the Kd (CREB3) was greater than 1000 nM, the Kd (CREB3; [2]) was greater than 1000 nM and the Kd (CREB3; [3]) was greater than 1000 nM. For the same sequence, the Kd (CREB3; [5]) was greater than 1000 nM, the Kd (CREB3; [6]) was greater than 1000 nM and the Kd (CREB3; [8]) was greater than 1000 nM. For the same sequence, the Kd (ATF2; 4°C) was 200 to 1000 nM, the Kd (ATF2; 23°C) was greater than 1000 nM and the Kd (ATF2; 37°C) was greater than 1000 nM. The Kd (BATF3; 4°C, C-terminal rhodamine design) was 362 nM, the Kd (BATF3; 4°C, N-terminal rhodamine design) was greater than 1000 nM and the Kd (BATF3; 23°C, C-terminal rhodamine design) was greater than 5000 nM. The Kd (BATF3; 23°C, N-terminal rhodamine design) was greater than 1000 nM, the Kd (BATF3; 37°C, C-terminal rhodamine design) was greater than 1000 nM and the Kd (BATF3; 37°C, N-terminal rhodamine design) was greater than 1000 nM. For the same sequence, the Kd (ATF5; [1]) was greater than 1000 nM, the Kd (ATF5; [2]) was greater than 5000 nM and the Kd (ATF5; [3]) was greater than 1000 nM. It also gave a Kd (ATF5; [4]) greater than 1000 nM, a Kd (ATF5; [5]) greater than 1000 nM and a Kd (ATF5; [6]) greater than 1000 nM. The Kd (ATF5; [7]) was greater than 1000 nM, the Kd (ATF5; [9]) was greater than 1000 nM and the Kd (ATF5; [8]) was greater than 1000 nM. It also gave a Kd (FOSL1) greater than 1000 nM, a Kd (FOSL1; [2]) greater than 1000 nM and a Kd (FOSL1; [3]) greater than 1000 nM. The Kd (FOSL1; [5]) was greater than 1000 nM, the Kd (FOSL1; [6]) was greater than 1000 nM and the Kd (FOSL1; [8]) was greater than 1000 nM. For the same sequence, the Kd (HLF) was greater than 1000 nM, the Kd (HLF; [1]) was greater than 1000 nM and the Kd (HLF; [2]) was greater than 1000 nM. For the same sequence, the Kd (HLF; [3]) was greater than 1000 nM, the Kd (HLF; [4]) was greater than 1000 nM and the Kd (HLF; [5]) was greater than 1000 nM. The Kd (HLF; [6]) was greater than 1000 nM, the Kd (HLF; [7]) was greater than 1000 nM and the Kd (HLF; [8]) was greater than 1000 nM. For the same sequence, the Kd (CREBZF) was greater than 1000 nM, the Kd (CREBZF; [1]) was greater than 1000 nM and the Kd (CREBZF; [2]) was greater than 1000 nM. The Kd (CREBZF; [3]) was greater than 1000 nM, the Kd (CREBZF; [4]) was greater than 1000 nM and the Kd (CREBZF; [5]) was greater than 1000 nM. For the same sequence, the Kd (CREBZF; [6]) was greater than 1000 nM, the Kd (CREBZF; [7]) was greater than 1000 nM and the Kd (CREBZF; [8]) was greater than 1000 nM. The Kd (BATF2; [1]) was greater than 1000 nM, the Kd (BATF2; [2]) was greater than 5000 nM and the Kd (BATF2; [3]) was greater than 1000 nM. For the same sequence, the Kd (BATF2; [4]) was greater than 1000 nM, the Kd (BATF2; [5]) was greater than 1000 nM and the Kd (BATF2; [6]) was greater than 1000 nM. For the same sequence, the Kd (BATF2; [7]) was greater than 1000 nM, the Kd (BATF2; [9]) was greater than 1000 nM and the Kd (BATF2; [8]) was greater than 1000 nM.
